Data: the supplement of paper PMC4862054

Columns and labels:
Settings in all cases: incubation time: 72 h
SK-BR-3 = assay: drug sensitivity score (DSS), CellTiter-Glo (DSS (AUC-based score)); higher = stronger drug effect (viability inhibition or cytotoxicity); extreme values may be limits of the assay
Outline: (§1)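 Compound was dispensed into 384-well plates at 5 concentrations in 10-fold steps spanning a 10,000-fold range chosen for each compound, and 20 µl of breast cancer cell suspension was added before 72 h of incubation. CellTox Green fluorescence was read at 485/520 nm, followed by CellTiter-Glo luminescence after 10 min at room temperature. Values on each plate were normalised to 0.1 % DMSO and a positive kill control. The drug sensitivity score came from the area under the fitted dose-response curve.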

CAL-51 = assay: as above
Outline: as §1

BT-474 [1] = assay: as above
Outline: as §1

Hs578T = assay: as above
Outline: as §1

HCC1599 [2] = assay: as above
Outline: as §1

BT-549 [3] = assay: as above
Outline: as §1

MCF-10A = assay: as above
Outline: as §1

HCC1937 [4] = assay: as above
Outline: as §1

MDA-MB-436 = assay: as above
Outline: as §1

DU-4475 [5] = assay: as above
Outline: as §1

MDA-MB-231 = assay: as above
Outline: as §1

CAL-148 = assay: as above
Outline: as §1

MFM-223 [6] = assay: as above
Outline: as §1

HCC1143 [7] = assay: as above
Outline: as §1

HDQ-P1 [8] = assay: as above
Outline: as §1

MDA-MB-468 = assay: as above
Outline: as §1

CAL-85-1 = assay: as above
Outline: as §1

MDA-MB-453 [9] = assay: as above
Outline: as §1

BT-474 [10] = assay: normalised response (% of control), CellTox Green; higher = less cell death (100 = DMSO, 0 = benzethonium chloride kill control)
Outline: (§2)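 Two readouts were taken after 72 h: CellTox Green fluorescence (485/520 nm) first, then CellTiter-Glo luminescence after 10 min at room temperature. Breast cancer cell lines had been seeded as 20 µl suspension into 384-well plates holding compound at 5 concentrations in 10-fold steps across a compound-specific 10,000-fold range. Each value is a normalised signal at a single concentration, with plates scaled to 0.1 % DMSO (100) and a positive kill control (0).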

HCC1599 [11] = assay: as above
Outline: as §2

BT-549 [12] = assay: as above
Outline: as §2

HCC1937 [13] = assay: as above
Outline: as §2

DU-4475 [14] = assay: as above
Outline: as §2

MFM-223 [15] = assay: as above
Outline: as §2

HCC1143 [16] = assay: as above
Outline: as §2

HDQ-P1 [17] = assay: as above
Outline: as §2

MDA-MB-453 [18] = assay: as above
Outline: as §2

Row | SMILES | drug sensitivity score (SK-BR-3) | drug sensitivity score (CAL-51) | drug sensitivity score (BT-474 [1]) | drug sensitivity score (Hs578T) | drug sensitivity score (HCC1599 [2]) | drug sensitivity score (BT-549 [3]) | drug sensitivity score (MCF-10A) | drug sensitivity score (HCC1937 [4]) | drug sensitivity score (MDA-MB-436) | drug sensitivity score (DU-4475 [5]) | drug sensitivity score (MDA-MB-231) | drug sensitivity score (CAL-148) | drug sensitivity score (MFM-223 [6]) | drug sensitivity score (HCC1143 [7]) | drug sensitivity score (HDQ-P1 [8]) | drug sensitivity score (MDA-MB-468) | drug sensitivity score (CAL-85-1) | drug sensitivity score (MDA-MB-453 [9]) | normalised response (BT-474 [10]) [%] | normalised response (HCC1599 [11]) [%] | normalised response (BT-549 [12]) [%] | normalised response (HCC1937 [13]) [%] | normalised response (DU-4475 [14]) [%] | normalised response (MFM-223 [15]) [%] | normalised response (HCC1143 [16]) [%] | normalised response (HDQ-P1 [17]) [%] | normalised response (MDA-MB-453 [18]) [%]
1 | CNC(=O)c1cc(Oc2ccc(NC(=O)Nc3ccc(Cl)c(C(F)(F)F)c3)c(F)c2)ccn1 [Regorafenib] | 1.17 | 5.7 | 2.89 | 3.86 | 1.51 | 1.23 | 4.48 | 1.28 | 1.08 | 1.79 | 0.969 | 0.856 | 6.42 | 0 | 2.22 | 1.92 | 0 | 2.37 | – | – | – | – | – | – | – | – | –
2 | COC(=O)c1ccc2c(c1)NC(=O)/C2=C(\Nc1ccc(N(C)C(=O)CN2CCN(C)CC2)cc1)c1ccccc1 [Nintedanib] | 0 | 8.21 | 5.02 | 1.11 | 0 | 8.24 | 8.49 | 3.95 | 3.08 | 0 | 6.66 | 0 | 7.98 | 2.02 | 6.77 | 5.28 | 0 | 1.67 | – | – | – | – | – | – | – | – | –
3 | CC(C)C[C@@H](C(=O)N[C@H](C(=O)OC1CCCC1)c1ccccc1)[C@H](O)C(=O)NO [Tosedostat] | 0 | 4.55 | 16.9 | 2.74 | 0 | 12.3 | 0 | 8.46 | 5.37 | 0 | 11.1 | 5.14 | 6.14 | 5.96 | 5.25 | 19.1 | 12.7 | 14.1 | – | – | – | – | – | – | – | – | –
4 | COc1cc2/c(=N/c3ccc(Br)cc3F)nc[nH]c2cc1OCC1CCN(C)CC1 [Vandetanib] | 0 | 0.137 | 3.47 | 0 | 0 | 0 | 10.3 | 0 | 0.551 | 0 | 0 | 0 | 0.335 | 0 | 0 | 4.76 | 0 | 0 | – | – | – | – | – | – | – | – | –
5 | Cc1cc(Nc2cc(CN3CCOCC3)c3nc(C)c(Cc4ccc(Cl)cc4F)n3n2)n[nH]1 [Gandotinib] | 3.64 | 9.68 | 6.22 | 6.39 | 0 | 6.71 | 3.4 | 1.28 | 4.83 | 0.384 | 7.43 | 0 | 5.57 | 2.62 | 5.01 | 9.64 | 4.82 | 0 | – | – | – | – | – | – | – | – | –
6 | Nc1cc(C(F)(F)F)c(-c2cc(N3CCOCC3)nc(N3CCOCC3)n2)cn1 [Buparlisib] | 0 | 7.02 | 3.23 | 1.39 | 0 | 7.05 | 9.62 | 3.29 | 0 | 1.54 | 3 | 0 | 10 | 1.75 | 6.14 | 6.3 | 0 | 0 | – | – | – | – | – | – | – | – | –
7 | CCOC(=O)CCNc1cc(N2CCc3ccccc3CC2)nc(-c2ccccn2)n1 [GSK-J4] | 10.7 | 21.5 | 12.1 | 10.4 | 12.1 | 22.2 | 12.1 | 12 | 15.7 | 13.5 | 14 | 17.3 | 12.5 | 12.5 | 10.5 | 19.9 | 15.1 | 17 | – | – | – | – | – | – | – | – | –
8 | Cc1ccc(NC(=O)c2ccc(CN3CCN(C)CC3)cc2)cc1Nc1nc(-c2cccnc2)cs1 [Masitinib] | 1.79 | 4.22 | 1.81 | 0 | 1.31 | 3.23 | 0 | 0.648 | 0 | 0 | 1.26 | 0 | 0.34 | 0 | 0.939 | 4.71 | 0 | 3.95 | – | – | – | – | – | – | – | – | –
9 | O=C(Nc1cccnc1)N1CCC(Cc2cccc(Oc3ccc(C(F)(F)F)cn3)c2)CC1 [PF-3845] | 0 | 2.47 | 0 | 0 | 1.04 | 1.34 | 0 | 0 | 0 | 0 | 0 | 0 | 0 | 0 | 0 | 3.47 | 0.0221 | 0 | – | – | – | – | – | – | – | – | –
10 | N#Cc1ccc(COC[C@H]2O[C@@H](n3c(NCc4ccc(Cl)c(Cl)c4)nc4c(N)ncnc43)[C@H](O)[C@@H]2O)cc1 | 2.28 | 0 | 3.43 | 1.73 | 0 | 3.44 | 1.78 | 3.1 | 0 | 2.77 | 0 | 0 | 0.407 | 1.09 | 1.31 | 2.09 | 0 | 0 | – | – | – | – | – | – | – | – | –
11 | COc1cc2c(NC3CCN(C(C)C)CC3)nc(N3CCC(F)(F)CC3)nc2cc1OCCCN1CCCC1 [UNC0642] | 2.71 | 0 | 1.75 | 0 | 0 | 0 | 3.66 | 1.97 | 4.42 | 0 | 3.72 | 3.63 | 3.31 | 0 | 0.93 | 7.75 | 5.86 | 5.58 | – | – | – | – | – | – | – | – | –
12 | CNC(=O)c1cccc(-c2ccc3c(N4CCOC[C@@H]4C)nc(N4CCOC[C@@H]4C)nc3n2)c1 [AZD2014] | 18.4 | 17.4 | 8.78 | 11.4 | 0.92 | 15.3 | 10.3 | 9.48 | 11.1 | 7.74 | 8.36 | 13.8 | 15.7 | 12.7 | 14.8 | 11.4 | 13.2 | 13.5 | – | – | – | – | – | – | – | – | –
13 | COc1cc(O)c2c(c1)/C=C/C[C@H](O)[C@H](O)C(=O)/C=C\C[C@H](C)OC2=O [(5Z)-7-Oxozeaenol] | 2.34 | 4.7 | 7.43 | 5.42 | 3.26 | 14 | 9.62 | 5.41 | 7.08 | 20 | 9.42 | 7.16 | 5.76 | 2 | 7.51 | 9.6 | 12.4 | 1.38 | – | – | – | – | – | – | – | – | –
14 | CNC(=O)c1ccc(N2C(=S)N(c3ccc(C#N)c(C(F)(F)F)c3)C(=O)C23CCC3)cc1F [RD162] | 0 | 0 | 3.77e-05 | 0 | 0 | 0 | 0 | 0 | 0 | 0 | 0 | 0 | 0 | 0 | 0 | 0 | 0 | 0 | – | – | – | – | – | – | – | – | –
15 | Oc1ccc2c(c1)CC[C@H](c1ccccc1)[C@@H]2c1ccc(OCCN2CCCC2)cc1 [Lasofoxifene] | 0 | 0 | 0 | 0 | 0 | 0 | 0 | 0 | 0 | 0 | 0 | 0 | 0 | 0 | 0 | 0 | 0 | 0 | – | – | – | – | – | – | – | – | –
16 | CN(C)c1nc(N(C)C)nc(N(C)C)n1 [Altretamine] (1000 nM) | – | – | – | – | – | – | – | – | – | – | – | – | – | – | – | – | – | – | 100 | 90.7 | 107 | 118 | 103 | 99.7 | 113 | 69.2 | 105
17 | COCC[n+]1c2c(n(Cc3cnccn3)c1C)C(=O)c1ccccc1C2=O [YM155] (10000 nM) | – | – | – | – | – | – | – | – | – | – | – | – | – | – | – | – | – | – | -15 | 55.7 | 8.26 | 1.09 | 68.1 | 25.7 | 62.8 | 25.1 | 28.4
18 | Cc1[nH]c2ccccc2c1CCNCc1ccc(/C=C/C(=O)NO)cc1 [Panobinostat] (100 nM) | – | – | – | – | – | – | – | – | – | – | – | – | – | – | – | – | – | – | 36.8 | 75 | 105 | -55.9 | 62.1 | 71.4 | 71.8 | 90 | 88.3
